Test results: US20240287074A1, “SALTS AND CRYSTALS” (Kinoxis Therapeutics Pty Ltd, priority 2020, published 2024)
Converted amounts (≈) assume the structure as drawn. “Also recorded” adds a separate entry of the source. Where a name gives a salt, the structure may show the parent alone. Read-outs that look alike come from different tables or passages of the source.

How the values were obtained:
Type in all cases: physicochemical
[1] = Primary salt screen: XRPD pattern after drying and after 40° C./75% RH; settings: for Post-Drying (XRPD pattern): oven at 40° C. for about 24 hours; for Post 40° C./75% RH (XRPD pattern): stability chamber at 40° C./75% RH for about 24 hours; for Comments (stability): salt screen summary
Experimental: The following procedure was used: • Approximately 30 mg of 1-methyl-1,4,5,10-tetrahydropyrazolo[3,4-b][1,5]benzodiazepine freebase was weighed into 5×1.5 mL glass vials. • 300 μL of selected solvent system was added to each vial to form a mobile slurry, and a beige slurry was observed. • 1.05 (or 0.525 for the hemi experiments) equivalents of acid counterion (see Table 1) was added to each sample and initial observations were recorded. • The samples were temperature cycled between ambient and 40° C. in 4-hour cycles for about 72 hours. • The samples were collected, and observations made. • Samples in which solids were observed were filtered via centrifugation and the solids were loaded onto a multi-well XRPD plate and analyzed by XRPD. • Samples in which no solids were observed were uncapped and left undisturbed to allow evaporation at ambient temperature.

[2] = 1-week stability studies (XRPD, HPLC)
Experimental: The isolated 1-methyl-1,4,5,10-tetrahydropyrazolo[3,4-b][1,5]benzodiazepine freebase was characterized by TG/DTA, DSC, DVS with post-DVS, XRPD, HPLC, ^1H NMR and LC-MS, as per the methods detailed above. The 1-methyl-1,4,5,10-tetrahydropyrazolo[3,4-b][1,5]benzodiazepine freebase was stored at 40° C./75% relative humidity (RH) for 1 week to determine the stability of the material at increased RH and to identify potential hydrate formation.
One-week stability studies were conducted on the freebase (example 1), phosphate form 1 (example 3) and L-tartrate form 1 (example 5) salts using the following procedures: • Approximately 20 mg of each form was weighed into 3×2 mL glass vials. • One vial for each form was stored under the following conditions for 1-week: • 1. Ambient temperature, light and humidity (unsealed vial) • 2. 40° C./75% RH (unsealed vial) • 3. 80° C. (sealed vial) • The samples were collected after 1-week and observations were made. • The solids were analyzed by XRPD and HPLC.

[3] = Salt disproportionation studies in deionized water; settings: about 24 hours; for salt disproportionation: slurry in deionized water, ambient temperature
Experimental: (§1) The following procedure was used during the salt disproportionation studies: • Approximately 20 mg of phosphate form 1 (Example 3) and L-tartrate form 1 (Example 5) were weighed into 2 mL glass vials. • Deionized water was added to each sample in 100 μL aliquots until a mobile slurry was observed. • The slurries were agitated at ambient temperature for about 24 hours. • The slurries were collected and filtered via centrifugation. • The isolated solids were analyzed by XRPD. • The pH of the mother liquors were recorded.

[4] = Thermodynamic solubility in PBS buffer pH 7.4; settings: for solubility: PBS buffer at pH 7.4, ambient temperature, about 24 hours, HPLC; for pH (t = 24 h): mother liquor of PBS pH 7.4 slurry
Experimental: The thermodynamic solubility of freebase (example 1), phosphate form 1 (example 3) and L-tartrate form 1 (example 5) were assessed in phosphate buffered saline (PBS) buffer at pH 7.4 according to the following procedure: • Approximately 30 mg of each form was weighed into 2 mL glass vials. • 100 μL of buffer solution was added to each vial until partial dissolution was observed. • The observed slurries were agitated at ambient temperature for about 24 hours. • The samples were collected, and observations were recorded. • The samples were filtered via centrifugation. • The pH of the mother liquors were recorded. • The concentration of the mother liquors were recorded by HPLC.

[5] = Dynamic / gravimetric vapour sorption (DVS/GVS) hygroscopicity; settings: for hygroscopicity: DVS, 25° C.
Experimental: Approximately, 10-20 mg of sample was placed into a mesh vapour sorption balance pan and loaded into a DVS Intrinsic dynamic vapour sorption balance by Surface Measurement Systems. The sample was subjected to a ramping profile from 40-90% relative humidity (RH) at 10% increments, maintaining the sample at each step until a stable weight had been achieved (dm/dt 0.004%, minimum step length 30 minutes, maximum step length 500 minutes) at 25° C. After completion of the sorption cycle, the sample was dried using the same procedure to 0% RH and then a second sorption cycle back to 40% RH. Two cycles were performed. The weight change during the sorption/desorption cycles were plotted, allowing for the hygroscopic nature of the sample to be determined. XRPD analysis was then carried out on any solid retained.
Approximately 10-20 mg of sample was placed into a mesh vapour sorption balance pan and loaded into an IGASorp Moisture Sorption Analyser balance by Hiden Analytical. The sample was subjected to a ramping profile from 40-90% relative humidity (RH) at 10% increments, maintaining the sample at each step until a stable weight had been achieved (98% step completion, minimum step length 30 minutes, maximum step length 60 minutes) at 25° C. After completion of the sorption cycle, the sample was dried using the same procedure to 0% RH, and finally taken back to the starting point of 40% RH. Two cycles were performed. The weight change during the sorption/desorption cycles were plotted, allowing for the hygroscopic nature of the sample to be determined.

[6] = Hydration studies in methanol/water mixtures; settings: MeOH/water mixtures, water activity 0.2, 0.6, 0.8, about 24 hours
Experimental: as §1, with “the hydration” for “the salt disproportionation”, “• Selected methanol/deionized” for “• Deionized”, “water mixtures (see Table 5) were” for “water was”

[7] = 1 week, ambient temperature, light and humidity, 40° C./75% RH, 80° C.

Compound	Post-Drying (XRPD pattern) [1]	Post 40° C./75% RH (XRPD pattern) [1]	further results
Cn1ncc2c1Nc1ccccc1NC2 [Esylate pattern 1]	Pattern 1	Pattern 2	
Cn1ncc2c1Nc1ccccc1NC2 [Besylate pattern 1]	Pattern 1	Pattern 1, 2	
Cn1ncc2c1Nc1ccccc1NC2 [Mesylate pattern 3]	Pattern 3	Deliquesced	
Cn1ncc2c1Nc1ccccc1NC2 [Isethionate pattern 1]	Pattern 1	Pattern 3	
Cn1ncc2c1Nc1ccccc1NC2 [Napadisylate pattern 1]	Pattern 1	Pattern 1	Comments (stability) [1]: Good
Cn1ncc2c1Nc1ccccc1NC2 [Sulfate pattern 2]	Pattern 2	Pattern 2	
Cn1ncc2c1Nc1ccccc1NC2 [Mesylate pattern 1]	Pattern 1	Pattern 1/2	
Cn1ncc2c1Nc1ccccc1NC2 [Hydrobromide pattern 2]	Pattern 2	Pattern 2	
Cn1ncc2c1Nc1ccccc1NC2 [Hydrobromide pattern 1]	Pattern 1	Pattern 1	Comments (stability) [1]: Good
Cn1ncc2c1Nc1ccccc1NC2 [Esylate pattern 2]	Pattern 2	Pattern 2	
Cn1ncc2c1Nc1ccccc1NC2 [Isethionate pattern 2]	Pattern 2	Pattern 3	
Cn1ncc2c1Nc1ccccc1NC2 [Sulfate pattern 3]	Pattern 3	Pattern 3	
Cn1ncc2c1Nc1ccccc1NC2 [Napsylate pattern 1]	Pattern 1	Pattern 2	Comments (stability) [1]: Good
Cn1ncc2c1Nc1ccccc1NC2 [Tosylate pattern 3]	Pattern 3	Pattern 3	
Cn1ncc2c1Nc1ccccc1NC2 [Edisylate pattern 1]	Pattern 1	Pattern 2	Comments (stability) [1]: Good
Cn1ncc2c1Nc1ccccc1NC2 [Tosylate pattern 2]	Pattern 2	Pattern 2	
Cn1ncc2c1Nc1ccccc1NC2 [L-tartrate form 1, L-tartaric acid addition salt of 1-methyl-1,4,5,10-tetrahydropyrazolo[3,4-b][1,5]benzodiazepine]			changes in form by XRPD [2, 7]: no changes in form; changes in purity by HPLC [2, 7]: did not identify any significant changes in purity; change in XRPD pattern ([3]; material slurried in water): No change in XRPD pattern; salt disproportionation [3]: Salt disproportionation was not observed; salt disproportionation ([3]; listed as L-tartrate): No evidence; solubility [4]: 6.3 mg/mL; pH (t = 24 h) [4]: 3.36; change in form by XRPD post-DVS analysis [5]: No evidence of form changes or hydrate formation; hygroscopicity [5]: slightly hygroscopic; hygroscopicity ([5]; listed as L-tartrate salt): slightly hygroscopic; DVS mass increase ([5]; at 90% RH): about 0.6%; DVS mass increase ([5]; at 90% RH, listed as L-tartrate salt): about 0.6 wt. %; change in form by XRPD post-DVS analysis ([5]; listed as L-tartrate salt): no changes in form; thermal stability and hygroscopicity ([1]; conclusion of salt screen): acceptable thermal stability and hygroscopicity; Post-Drying (XRPD pattern) ([1]; listed as Tartrate pattern 1): Pattern 1; Comments (stability) [1]: Good; Post 40° C./75% RH (XRPD pattern) ([1]; listed as Tartrate pattern 1): Pattern 1; change in XRPD pattern [6]: No change in XRPD pattern; hydrate formation [6]: Hydrate formation was not observed; hydrate formation ([6]; listed as L-tartrate): No evidence
Cn1ncc2c1Nc1ccccc1NC2 [Edisylate pattern 2]	Pattern 2	Pattern 2	
Cn1ncc2c1Nc1ccccc1NC2 [Tosylate pattern 1]	Pattern 1	Pattern 1	Comments (stability) [1]: Good
Cn1ncc2c1Nc1ccccc1NC2 [Maleate pattern 1]	Pattern 1	Pattern 1	
Cn1ncc2c1Nc1ccccc1NC2 [Sulfate pattern 1]	Pattern 1	Pattern 4	
Cn1ncc2c1Nc1ccccc1NC2 [freebase, 1-Methyl-1,4,5,10-tetrahydropyrazolo[3,4-b][1,5]benzodiazepine]			changes in form or purity ([2]; 1 week at 40° C./75% RH and 80° C.): no changes in form or purity; XRPD diffractogram after storage ([2]; 1 week under ambient conditions (temperature, light, humidity)): An additional peak was observed; changes in pattern/form by XRPD post-storage ([2]; 40° C./75% RH for 1 week): No significant changes in pattern; also recorded: no changes in form; stability under ambient light ([2]; conclusion of 1-week stability study): may be unstable under ambient light; changes in purity by HPLC ([2]; stored under ambient conditions): did not show any significant changes in purity; solubility [4]: 0.3 mg/mL (≈ 1500 µM); pH (t = 24 h) [4]: 7.32; change in form by XRPD post-DVS analysis [5]: No change in form; hygroscopicity by DVS ([5]; above 70% RH): hygroscopic; DVS mass increase ([5]; between 0 and 70% RH): about 0.11%; hygroscopicity by DVS ([5]; between 0 and 70% RH): non-hygroscopic; DVS mass increase ([5]; between 70 and 90% RH): about 2.74%
Cn1ncc2c1Nc1ccccc1NC2 [Napadisylate pattern 2]	Pattern 2	Pattern 2	
Cn1ncc2c1Nc1ccccc1NC2 [Mesylate pattern 2]	Pattern 2	Pattern 1	
Cn1ncc2c1Nc1ccccc1NC2 [Napsylate pattern 2]	Pattern 2	Pattern 2	
